Source: PubChem BioAssay (NCI)
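Method: 48-hour compound exposure of cells in 96-well plates, five concentrations, linear interpolation of endpoints. Abbreviation: GI50, concentration required for 50% inhibition of growth. TGI denotes the concentration required for complete inhibition of growth.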

Legend:
Assay in all cases: NCI tumour cell line growth inhibition, 48 h
SK-MEL-2 melanoma = system: SK-MEL-2 melanoma
SW-620 colon = system: SW-620 colon
NCI-H460 lung = system: NCI-H460 lung
HT29 colon = system: HT29 colon
IGROV1 ovarian = system: IGROV1 ovarian
HCT-15 colon = system: HCT-15 colon
MOLT-4 leukemia = system: MOLT-4 leukemia
A498 renal = system: A498 renal
DU-145 prostate = system: DU-145 prostate
SF-295 CNS = system: SF-295 CNS

SMILES | GI50 (SK-MEL-2 melanoma) | TGI (SK-MEL-2 melanoma) | GI50 (SW-620 colon) | TGI (SW-620 colon) | GI50 (NCI-H460 lung) | TGI (NCI-H460 lung) | GI50 (HT29 colon) | TGI (HT29 colon) | GI50 (IGROV1 ovarian) | TGI (IGROV1 ovarian) | GI50 (HCT-15 colon) | TGI (HCT-15 colon) | GI50 (MOLT-4 leukemia) | TGI (MOLT-4 leukemia) | GI50 (A498 renal) | TGI (A498 renal) | GI50 (DU-145 prostate) | TGI (DU-145 prostate) | GI50 (SF-295 CNS) | TGI (SF-295 CNS)
Nc1c(C(=O)c2cccc(-c3cccnc3)c2)cnn1-c1ccc(F)cc1F | 3.87 µM | > 18.4 µM | 1.27 µM | > 25 µM | 1.52 µM | > 25 µM | 1.05 µM | > 25 µM | 2.06 µM | > 25 µM | 1.11 µM | > 25 µM | 7.85 µM | > 25 µM | 2.64 µM | > 23 µM | 12 µM | > 25 µM | 3.26 µM | > 24 µM
C#CCNCCN1C(=O)c2ccc3c4c(ccc(c24)C1=O)C(=O)N(CCNCC#C)C3=O | 6.57 µM | 14.1 µM | 1.92 µM | 11.8 µM | 1.86 µM | 9.68 µM | 1.65 µM | 6.2 µM | 2.07 µM | 10.4 µM | 2.95 µM | 10.6 µM | 3.54 µM | 16.7 µM | 7.14 µM | 14.1 µM | 5.35 µM | 11.8 µM | 2.15 µM | 15 µM
COc1cc(OC)c(C(=O)/C=C/c2cccc(C#N)c2)c(OC)c1 | 1.49 µM | 6.44 µM | 1.46 µM | 5.15 µM | 1.1 µM | 2.86 µM | 1.69 µM | 5.87 µM | 1.55 µM | 5.91 µM | 0.853 µM | 3.02 µM | 1.13 µM | > 50 µM | 1.24 µM | 3.3 µM | 1.47 µM | 6.37 µM | 1.31 µM | 5.51 µM
Cc1cn2c(/C=C3/C(=O)Nc4ccc(O)cc43)c(C)nc2s1 | > 53 µM | > 100 µM | 2.88 µM | > 100 µM | 2.56 µM | 14.5 µM | 2.47 µM | > 100 µM | 7.23 µM | > 100 µM | 3.78 µM | > 58.5 µM | 4.46 µM | 48.6 µM | 19.1 µM | 67.7 µM | 6.43 µM | > 100 µM | 1.73 µM | 8.08 µM
O=C1NOC(c2ccc(O)cc2)(c2ccc(O)cc2)c2ccccc21 | > 100 µM | > 100 µM | > 100 µM | > 100 µM | > 100 µM | > 100 µM | > 100 µM | > 100 µM | > 100 µM | > 100 µM | > 100 µM | > 100 µM | > 100 µM | > 100 µM | > 100 µM | > 100 µM | > 100 µM | > 100 µM | > 100 µM | > 100 µM
C=C1CC[C@@H]2[C@](C)(COC(C)=O)[C@H](OC(C)=O)CC[C@@]2(C)[C@@H]1CC(Nc1ccc(S(=O)(=O)Nc2ccc(Cl)nn2)cc1)C1=CCOC1=O (some centres not stated) | 1.77 µM | 3.99 µM | 1.07 µM | 2.8 µM | 2.03 µM | 4.31 µM | – | – | 2.08 µM | 5 µM | 0.882 µM | 2.3 µM | 1.96 µM | > 100 µM | 1.4 µM | 4.26 µM | 1.7 µM | 3.45 µM | 3.28 µM | 12.6 µM
CN(C)c1ccc(C(=NO)c2ccc(N(C)C)cc2)cc1 | 3.57 µM | > 100 µM | 0.729 µM | > 100 µM | 3.23 µM | > 100 µM | 3.6 µM | > 100 µM | 2.4 µM | > 100 µM | 1.64 µM | > 100 µM | 3.02 µM | > 100 µM | 2.57 µM | > 100 µM | 4.52 µM | > 100 µM | – | –
COC(=O)C1=C(C)NC(C)=C(C(=O)OCC(C)C)C1c1ccccc1[N+](=O)[O-] (configuration not stated) | 4 µM | 13.6 µM | 3.11 µM | 11.4 µM | 3.6 µM | 15.2 µM | 9.2 µM | 22.9 µM | 5.55 µM | 25.9 µM | 3.88 µM | 15.9 µM | 3.31 µM | 18.9 µM | 10.7 µM | 23.7 µM | 5.48 µM | 34.7 µM | – | –
CCOC(=O)C1CCCCN1C(=O)c1ccc(Nc2cnc3cc(C(F)(F)F)ccc3n2)cc1 (configuration not stated) | 23.2 µM | 67.3 µM | 17.8 µM | 38.5 µM | 13.3 µM | 30.4 µM | – | – | 19.3 µM | 40.8 µM | 17.2 µM | 42.6 µM | 3.93 µM | > 100 µM | 10.3 µM | 22.9 µM | 20.5 µM | 92.2 µM | 3.31 µM | 9.24 µM
